Results from patent publication US7270966B2, “Human pyrimidine receptor” (Euroscreen SA, priority 1995, dated 2007).
Like-named read-outs stand apart in the source and are kept apart here. Each block holds one molecule with its values, some of them ahead of it.

Experiments:
human P2Y4 receptor [1] = molecular target: T1, human P2Y4 receptor (Homo sapiens, UniProt P51582); assay: InsP3 accumulation in 1321N1 cells expressing the human P2Y4 receptor; type: cell-based; conditions: for agonist effect on InsP3 at 30 s: 30 s incubation, 100 μM; for effect per se on InsP3 production: agonist alone; for functional response (IP3 accumulation) in pool of G418-resistant clones: pool of transfected 1321N1 clones
T1 construct: expressed in transfected cells; host or cells: 1321N1 human astrocytoma cells, G418-selected clone, pcDNA3-P2Y4
T1 sequence (P51582 whole entry): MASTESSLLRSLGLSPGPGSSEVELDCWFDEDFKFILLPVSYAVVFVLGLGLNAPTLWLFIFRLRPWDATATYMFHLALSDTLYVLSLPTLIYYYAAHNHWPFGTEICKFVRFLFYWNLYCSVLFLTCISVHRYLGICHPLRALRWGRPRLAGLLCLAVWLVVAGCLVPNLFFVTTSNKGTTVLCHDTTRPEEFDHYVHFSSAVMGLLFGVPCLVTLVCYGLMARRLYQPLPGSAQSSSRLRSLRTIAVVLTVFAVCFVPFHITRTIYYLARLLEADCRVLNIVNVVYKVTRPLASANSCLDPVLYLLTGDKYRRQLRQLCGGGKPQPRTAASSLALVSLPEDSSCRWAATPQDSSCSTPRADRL
Experimental: Cells were transfected with the recombinant pcDNA3 plasmid (pcDNA3-P2Y4) using the calcium phosphate precipitation method as described (16). 1321N1 cells were incubated for 6 hours at 37° C. in the presence of pcDNA3 vector alone or vector containing the P2Y4 receptor coding sequence, then washed and incubated in culture medium (10% FCS, 100 U/ml penicillin, 100 μ/ml streptomycin and 2.5 μg/ml amphotericin B in Dulbecco's modified Eagle's medium (DMEM)). The selection with G418 (400 μg/ml) was started two days after transfection. From the pool of transfected 1321N1 cells, individual clones were isolated by limiting dilution with the aim of selecting clones with high IP stimulation factors in response to nucleotides. The different clones were maintained in a medium containing 400 μg/ml G418.
(§1) 1321N1 cells were labeled for 24 hours with 10 μCi/ml [^3H] inositol in inositol-free DMEM (Dulbecco's modified Eagle's medium) medium containing 5% fetal calf serum, 100 U/ml penicillin, 100 μg/ml streptomycin, 2.5 μg/ml amphotericin B and 400 μg/ml G418. Cells were washed twice with KRH (Krebs-Ringer Hepes) buffer of the following composition: (124 mM NaCl, 5 mM KCl, 1.25 mM MgSC4, 1.45 mM CaCl2, 25 mM Hepes (pH 7.4) and 8 mM glucose) and incubated in this medium for 30 min The agonists were added in the presence of LiCl (10 mM) and the incubation was stopped after 30 s, 5 min or 20 min by the addition of an ice-cold 3% perchloric acid solution. For the time course study, LiCl (10 mM) was added 5 min before the agonists and the incubation was stopped at different times. When tested, pertussis toxin (20 ng/ml) was added for 18 h during the labeling period time and during the stimulation by the agonist. Inositol phosphates were extracted and InsP3 was isolated by chromatography on Dowex column as described previously (17).

[2] = system: muscarinic receptors endogenously expressed in the 1321N1 cells; assay: Action of carbachol (InsP3) via muscarinic receptors endogenously expressed in 1321N1 cells; type: cell-based, human; conditions: cells transfected with P2Y4-pcDNA3 or vector alone
Experimental: as §1
The maximal effect of ATP observed after a 20 min incubation represented about 27±9% of that of UTP (mean±S.D. of ten experiments). […] The ATP concentration-inhibition curves were shifted to the right when the UTP concentration was increased, indicating the competitive nature of this inhibitory effect (panels A and B). On the other hand, at lower concentrations (30-300 μM), ATP enhanced the response to UTP by 29% (range 12-47%, mean of four experiments) (panel B). […] This observation was reproduced with cells transfected with the recombinant P2Y4-pcDNA3 plasmid or with the vector alone and was also obtained with AMP and adenosine (data not shown).

human P2Y4 receptor [3] = molecular target: T1, human P2Y4 receptor; assay: Radioligand binding of [α32P]UTP to membranes of P2Y4-transfected 1321N1 clones; conditions: clones 2, 11 and 21; 0.5 nM radioligand; data not shown
Experimental: Binding assays of [α^32P] UTP to cell membranes were carried out in Tris-HCl (50 mM, pH 7.5), EDTA 1 mM in a final volume of 0.5 ml, containing 25-50 μg of protein and 0.5 nM of radioligand (27). The assays were conducted at 30° C. for 5 min. Incubations were stopped by the addition of 4 ml of ice-cold Tris-HCl (50 mM, pH 7.5) and rapid filtration through Whatman GF/B filters under reduced pressure. The filters were then washed three times with 2 ml of the same ice-cold Tris-HCl buffer. Radioactivity was quantified by liquid scintillation counting, after an overnight incubation of the filters in liquid scintillation mixture.

[4] = 20 min incubation, 10 mM LiCl, read-out: EC50 InsP3 accumulation, full concentration-action curves
[5] = antagonist 100 μM, UTP 2 and 10 μM, 20 min
[6] = clone 2, 20 min incubation, 10 mM LiCl, read-out: EC50 InsP3 production
[7] = clone 11, 20 min incubation, 10 mM LiCl, read-out: EC50 InsP3 production
[8] = clone 21, 20 min incubation, 10 mM LiCl, read-out: EC50 InsP3 production

Molecule: O=c1[nH]c(=O)n([C@@H]2O[C@H](COP(=O)(O)OP(=O)(O)OP(=O)(O)O)[C@@H](O)[C@H]2O)cc1Br [5BrUTP]
agonist effect on InsP3 at 30 s (human P2Y4 receptor [1]): barely or not active
EC50 (human P2Y4 receptor [1]; [4]): 27.1 ± 1.9 µM

Molecule: Nc1ncnc2c1ncn2[C@@H]1O[C@H](COP(=O)(O)OP(=O)(O)O)[C@@H](O)[C@H]1O [ADP]
effect on the action of carbachol [2]: increased
inhibition of the action of UTP (qualitative) (human P2Y4 receptor [1]): did not inhibit
stimulation by UTP in presence of ADP, relative to UTP alone (human P2Y4 receptor [1]; ADP 100 μM, UTP 10 μM): 158±15%
effect per se on InsP3 production (human P2Y4 receptor [1]; data not shown): almost no effect

Molecule: Cc1nc(N=Nc2ccc(S(=O)(=O)O)cc2S(=O)(=O)O)c(COP(=O)(O)O)c(C=O)c1O [PPADS]
inhibition of the UTP response by antagonist (human P2Y4 receptor [1]; [5]): 73±14%
IC50 (human P2Y4 receptor [1]; data not shown, read-out: IC50 for inhibition of the UTP response): ~15 µM

Molecule: Nc1c(S(=O)(=O)O)cc(Nc2ccc(Nc3nc(Cl)nc(Nc4cccc(S(=O)(=O)O)c4)n3)c(S(=O)(=O)O)c2)c2c1C(=O)c1ccccc1C2=O [RB-2, reactive blue 2]
inhibition of the UTP response by antagonist (human P2Y4 receptor [1]): 33±5%

Molecule: O=c1ccn([C@@H]2O[C@H](COP(=O)(O)OP(=O)(O)OP(=O)(O)O)[C@@H](O)[C@H]2O)c(=O)[nH]1 [UTP, uridine triphosphate]
EC50 (human P2Y4 receptor [1]; 20 min, 100 μM PPADS, read-out: EC50 value for UTP in the presence of PPADS): 12.2 ± 4.5 µM
EC50 (human P2Y4 receptor [1]; 20 min, no PPADS, read-out: EC50 value for UTP in the absence of PPADS): 3.3 ± 0.6 µM
EC50 (human P2Y4 receptor [1]; [4]): 2.5 ± 0.6 µM
EC50 (human P2Y4 receptor [1]; [6]): 0.3 ± 0.1 µM
potency of UTP relative to UDP (human P2Y4 receptor [1]; clone 11, 20 min incubation): 10 fold
EC50 (human P2Y4 receptor [1]; [7]): 2.4 ± 0.1 µM
EC50 (human P2Y4 receptor [1]; [8]): 0.3 ± 0.1 µM
functional response (IP3 accumulation) in pool of G418-resistant clones (human P2Y4 receptor [1]): agonists

Molecule: Nc1ncnc2c1ncn2[C@@H]1O[C@H](CO)[C@@H](O)[C@H]1O [adenosine]
effect on the action of carbachol [2]: increased
effect per se on InsP3 production (human P2Y4 receptor [1]; data not shown): without any effect

Molecule: O=c1ccn([C@H]2C[C@H](O)[C@@H](COP(=O)(O)OP(=O)(O)OP(=O)(O)O)O2)c(=O)[nH]1 [dUTP]
agonist effect on InsP3 at 30 s (human P2Y4 receptor [1]): barely or not active
EC50 (human P2Y4 receptor [1]; [4]): 20 ± 2.3 µM

Molecule: pertussis toxin
inhibition of the UTP response by pertussis toxin (human P2Y4 receptor [1]; 20 ng/ml, 18 hours pretreatment, UTP 100 μM, 30 s): 62±5%
effect of pertussis toxin on the UTP response (human P2Y4 receptor [1]; 20 ng/ml, 18 hours pretreatment, UTP 100 μM, 5 min): no significant effect
effect of pertussis toxin on the UTP response (human P2Y4 receptor [1]; 20 ng/ml, 18 hours pretreatment, UTP 100 μM, 20 min): no significant effect

More lines, main results first:

effect per se on InsP3 production (human P2Y4 receptor [1]; data not shown): without any effect
Molecule: Nc1ncnc2c1ncn2[C@@H]1O[C@H](COP(=O)(O)O)[C@@H](O)[C@H]1O [AMP]
effect on the action of carbachol [2]: increased

agonist effect on InsP3 at 30 s (human P2Y4 receptor [1]): no effect
EC50 (human P2Y4 receptor [1]; [4]): ~43 µM
maximal effect relative to that of UTP (human P2Y4 receptor [1]; 20 min incubation, % of UTP maximal effect): about 27±9%
enhancement of the response to UTP (human P2Y4 receptor [1]; ATP 30-300 μM, 20 min): 29%
antagonism of the response to UTP (human P2Y4 receptor [1]; UTP 10 μM, ATP 2 mM, 30 s): fully antagonized
inhibition of the UTP effect (human P2Y4 receptor [1]; UTP 10 μM, ATP 2 mM, 20 min): 62±11%
ATP concentration able to inhibit the effect of UTP (human P2Y4 receptor [1]; both at 30 s and 20 min): ≥ 500 µM
functional response (IP3 accumulation) in pool of G418-resistant clones (human P2Y4 receptor [1]): agonists
Molecule: Nc1ncnc2c1ncn2[C@@H]1O[C@H](COP(=O)(O)OP(=O)(O)OP(=O)(O)O)[C@@H](O)[C@H]1O [ATP]
effect on the action of carbachol [2]: increased

effect per se on InsP3 production (human P2Y4 receptor [1]; data not shown): without any effect
Molecule: Nc1ncnc2c1ncn2[C@@H]1O[C@H](COP(=O)(O)OP(=O)(O)OP(O)(O)=S)[C@@H](O)[C@H]1O [ATPyS]

agonist effect on InsP3 at 30 s (human P2Y4 receptor [1]): barely or not active
EC50 (human P2Y4 receptor [1]; [4]): 32.8 ± 5.4 µM
Molecule: O=c1[nH]cnc2c1ncn2[C@@H]1O[C@H](COP(=O)(O)OP(=O)(O)OP(=O)(O)O)[C@@H](O)[C@H]1O [ITP]

agonist effect on InsP3 at 30 s (human P2Y4 receptor [1]): barely or not active
EC50 (human P2Y4 receptor [1]; [4]): 19.5 ± 3.9 µM
EC50 (human P2Y4 receptor [1]; [6]): 3.3 ± 0.6 µM
EC50 (human P2Y4 receptor [1]; [7]): 19.8 ± 4.8 µM
EC50 (human P2Y4 receptor [1]; [8]): 3.2 ± 0.8 µM
Molecule: O=c1ccn([C@@H]2O[C@H](COP(=O)(O)OP(=O)(O)O)[C@@H](O)[C@H]2O)c(=O)[nH]1 [UDP]

effect per se on InsP3 production (human P2Y4 receptor [1]; data not shown): without any effect
Molecule: O=c1ccn([C@@H]2O[C@H](COP(=O)(O)O)[C@@H](O)[C@H]2O)c(=O)[nH]1 [UMP]

specific binding versus cells transfected with the vector alone (human P2Y4 receptor [3]): no increase in specific binding
Molecule: O=c1ccn(C2OC(CO[32P](=O)(O)OP(=O)(O)OP(=O)(O)O)C(O)C2O)c(=O)[nH]1 (stereo not drawn) [[α^32P] UTP]

inhibition of the UTP response by antagonist (human P2Y4 receptor [1]; [5]): inactive
Molecule: Cc1ccc(C(=O)Nc2ccc(S(=O)(=O)O)c3cc(S(=O)(=O)O)cc(S(=O)(=O)O)c23)cc1NC(=O)c1cccc(NC(=O)Nc2cccc(C(=O)Nc3cc(C(=O)Nc4ccc(S(=O)(=O)O)c5cc(S(=O)(=O)O)cc(S(=O)(=O)O)c45)ccc3C)c2)c1 [suramin]

effect per se on InsP3 production (human P2Y4 receptor [1]; data not shown): without any effect
Molecule: O=c1ccn([C@@H]2O[C@H](CO)[C@@H](O)[C@H]2O)c(=O)[nH]1 [uridine]
